The supplement of paper PMC11061612

Assays:
Capivasertib = compound: C1CN(CCC1(C(=O)N[C@@H](CCO)C2=CC=C(C=C2)Cl)N)C3=NC=NC4=C3C=CN4 [Capivasertib]; conditions: max 10 µM
Outline: (§1)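 Plates with 1536 wells received cancer cell lines in 7.5 μl of DMEM/F12 or RPMI containing 10% FBS. After 24 hours at 37°C and 5% CO2, cells were dosed for 72 hours with final DMSO typically 0.2%, and viability was read by CellTiter-Glo 2.0 luminescence scaled between blank-well and DMSO-well means. The single-agent IC50 was taken from a logistic fit of the dose responses made with a non-linear mixed effects model, that logistic curve having two parameters.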

AZD1775 = compound: C=CCn1c(=O)c2cnc(Nc3ccc(N4CCN(C)CC4)cc3)nc2n1-c1cccc(C(C)(C)O)n1 [AZD1775]; conditions: max 3 µM
Outline: as §1

Trametinib = compound: CC(=O)Nc1cccc(-n2c(=O)n(C3CC3)c(=O)c3c(Nc4ccc(I)cc4F)n(C)c(=O)c(C)c32)c1 [Trametinib]; conditions: max 1 µM
Outline: as §1

Palbociclib = compound: CC(=O)c1c(C)c2cnc(Nc3ccc(N4CCNCC4)cn3)nc2n(C2CCCC2)c1=O [Palbociclib]; conditions: max 10 µM
Outline: as §1

AZD1390 = compound: CC(C)n1c(=O)n(C)c2cnc3cc(F)c(-c4ccc(OCCCN5CCCCC5)nc4)cc3c21 [AZD1390]; conditions: max 0.3 µM
Outline: as §1

Venetoclax = compound: CC1(C)CCC(CN2CCN(c3ccc(C(=O)NS(=O)(=O)c4ccc(NCC5CCOCC5)c([N+](=O)[O-])c4)c(Oc4cnc5[nH]ccc5c4)c3)CC2)=C(c2ccc(Cl)cc2)C1 [Venetoclax]; conditions: max 1 µM
Outline: as §1

Dasatinib = compound: CC1=C(C(=CC=C1)Cl)NC(=O)C2=CN=C(S2)NC3=CC(=NC(=N3)C)N4CCN(CC4)CCO [Dasatinib]; conditions: max 2 µM
Outline: as §1

SG3199 = compound: CC1=CN2[C@@H](C1)C=NC3=CC(=C(C=C3C2=O)OC)OCCCCCOC4=C(C=C5C(=C4)N=C[C@@H]6CC(=CN6C5=O)C)OC [SG3199]; conditions: max 0.001 µM
Outline: as §1

AZD2811 = compound: CCN(CCO)CCCOc1ccc2c(Nc3cc(CC(=O)Nc4cccc(F)c4)[nH]n3)ncnc2c1 [AZD2811]; conditions: max 1 µM
Outline: as §1

SN-38 = compound: CCc1c2c(nc3ccc(O)cc13)-c1cc3c(c(=O)n1C2)COC(=O)[C@]3(O)CC [SN-38]; conditions: max 0.3 µM
Outline: as §1

AZD0156 = compound: CN(C)CCCOc1ccc(-c2ccc3ncc4c(c3c2)n(C2CCOCC2)c(=O)n4C)cn1 [AZD0156]; conditions: max 3 µM
Outline: as §1

AZD4320 = compound: CN(CC[C@H](CSC1=CC=CC=C1)NC2=C(C=C(C=C2)S(=O)(=O)NC(=O)C3=CC=C(C=C3)N4CCC(CC4)[C@H](C5=CC=CC=C5C6=CC=C(C=C6)Cl)O)S(=O)(=O)C(F)(F)F)CCO [AZD4320]; conditions: max 1 µM
Outline: as §1

Alisertib = compound: COc1cc(Nc2ncc3c(n2)-c2ccc(Cl)cc2C(c2c(F)cccc2OC)=NC3)ccc1C(=O)O [Alisertib]; conditions: max 10 µM
Outline: as §1

Gefitinib = compound: COc1cc2ncnc(Nc3ccc(F)c(Cl)c3)c2cc1OCCCN1CCOCC1 [Gefitinib]; conditions: max 10 µM
Outline: as §1

Prexasertib = compound: COc1cccc(OCCCN)c1-c1cc(Nc2cnc(C#N)cn2)n[nH]1 [Prexasertib]; conditions: max 1 µM
Outline: as §1

Doxorubicin = compound: COc1cccc2c1C(=O)c1c(O)c3c(c(O)c1C2=O)C[C@@](O)(C(=O)CO)C[C@@H]3O[C@H]1C[C@H](N)[C@H](O)[C@H](C)O1 [Doxorubicin]; conditions: max 1 µM
Outline: as §1

AZD5153 = compound: COc1nnc2ccc(N3CCC(c4ccc(OCCN5CCN(C)C(=O)[C@H]5C)cc4)CC3)nn12 [AZD5153]; conditions: max 1 µM
Outline: as §1

Lapatinib = compound: CS(=O)(=O)CCNCc1ccc(-c2ccc3ncnc(Nc4ccc(OCc5cccc(F)c5)c(Cl)c4)c3c2)o1 [Lapatinib]; conditions: max 10 µM
Outline: as §1

AZD8186 = compound: C[C@@H](Nc1cc(F)cc(F)c1)c1cc(C(=O)N(C)C)cc2c(=O)cc(N3CCOCC3)oc12 [AZD8186]; conditions: max 3 µM
Outline: as §1

Crizotinib = compound: C[C@@H](Oc1cc(-c2cnn(C3CCNCC3)c2)cnc1N)c1c(Cl)ccc(F)c1Cl [Crizotinib]; conditions: max 10 µM
Outline: as §1

Savolitinib = compound: C[C@@H](c1ccc2nccn2c1)n1nnc2ncc(-c3cnn(C)c3)nc21 [Savolitinib]; conditions: max 1 µM
Outline: as §1

AZD6738 = compound: C[C@@H]1COCCN1C2=NC(=NC(=C2)C3(CC3)[S@](=N)(=O)C)C4=C5C=CNC5=NC=C4 [AZD6738]; conditions: max 10 µM
Outline: as §1

AZD5991 = compound: Cc1c2c(nn1C)CSCc1cc(n(C)n1)CSc1cc(c3ccccc3c1)OCCCc1c(C(=O)O)n(C)c3c-2c(Cl)ccc13 [AZD5991]; conditions: max 1 µM
Outline: as §1

AZD7648 = compound: Cc1cc2ncnn2cc1Nc1ncc2c(n1)n(C1CCOCC1)c(=O)n2C [AZD7648]; conditions: max 10 µM
Outline: as §1

Taselisib = compound: Cc1nc(-c2cn3c(n2)-c2ccc(-c4cnn(C(C)(C)C(N)=O)c4)cc2OCC3)n(C(C)C)n1 [Taselisib]; conditions: max 10 µM
Outline: as §1

Selumetinib = compound: Cn1cnc2c(F)c(Nc3ccc(Br)cc3Cl)c(C(=O)NOCCO)cc21 [Selumetinib]; conditions: max 10 µM
Outline: as §1

Olaparib = compound: O=C(c1cc(Cc2n[nH]c(=O)c3ccccc23)ccc1F)N1CCN(C(=O)C2CC2)CC1 [Olaparib]; conditions: max 10 µM
Outline: as §1

MK-2206 = compound: NC1(c2ccc(-c3nc4ccn5c(=O)[nH]nc5c4cc3-c3ccccc3)cc2)CCC1 [MK-2206]; conditions: max 10 µM
Outline: as §1

Row | Cell Line | IC50, cell viability 72 h (Capivasertib) [µM] | IC50, cell viability 72 h (AZD1775) [µM] | IC50, cell viability 72 h (Trametinib) [µM] | IC50, cell viability 72 h (Palbociclib) [µM] | IC50, cell viability 72 h (AZD1390) [µM] | IC50, cell viability 72 h (Venetoclax) [µM] | IC50, cell viability 72 h (Dasatinib) [µM] | IC50, cell viability 72 h (SG3199) [µM] | IC50, cell viability 72 h (AZD2811) [µM] | IC50, cell viability 72 h (SN-38) [µM] | IC50, cell viability 72 h (AZD0156) [µM] | IC50, cell viability 72 h (AZD4320) [µM] | IC50, cell viability 72 h (Alisertib) [µM] | IC50, cell viability 72 h (Gefitinib) [µM] | IC50, cell viability 72 h (Prexasertib) [µM] | IC50, cell viability 72 h (Doxorubicin) [µM] | IC50, cell viability 72 h (AZD5153) [µM] | IC50, cell viability 72 h (Lapatinib) [µM] | IC50, cell viability 72 h (AZD8186) [µM] | IC50, cell viability 72 h (Crizotinib) [µM] | IC50, cell viability 72 h (Savolitinib) [µM] | IC50, cell viability 72 h (AZD6738) [µM] | IC50, cell viability 72 h (AZD5991) [µM] | IC50, cell viability 72 h (AZD7648) [µM] | IC50, cell viability 72 h (Taselisib) [µM] | IC50, cell viability 72 h (Selumetinib) [µM] | IC50, cell viability 72 h (Olaparib) [µM] | IC50, cell viability 72 h (MK-2206) [µM]
1 | KYSE-140 (Esophageal Squamous Cell Carcinoma) | 1.66 | 0.423 | 0.858 | > 10 | > 0.3 | > 1 | 1.23 | > 0.001 | > 1 | > 0.3 | > 3 | > 1 | > 10 | 1.93 | 0.012 | > 1 | 0.827 | 7.25 | > 3 | > 10 | > 1 | 0.66 | > 1 | > 10 | 1.13 | > 10 | > 10 | 
2 | LS-411N (Colorectal Carcinoma) | 7.04 | 0.412 | 0.0447 | > 10 | > 0.3 | > 1 | > 2 | > 0.001 | > 1 | > 0.3 | > 3 | > 1 | > 10 | > 10 | 0.0424 | > 1 | 0.169 | > 10 | > 3 | > 10 | > 1 | 4.06 | > 1 | > 10 | > 10 | 1.34 | > 10 | > 10
3 | NCI-H716 (Colorectal Carcinoma) | > 10 | 1.6 | > 1 | > 10 | > 0.3 | > 1 | > 2 | > 0.001 | > 1 | > 0.3 | > 3 | > 1 | 2.23 | > 10 | 0.181 | > 1 | 0.775 | > 10 | > 3 | > 10 | > 1 | > 10 | > 1 | > 10 | > 10 | > 10 | > 10 | 
4 | NCI-H2228 (Lung Adenocarcinoma) | > 10 | 2.87 | 0.955 | > 10 | > 0.3 | > 1 | > 2 | > 0.001 | > 1 | 0.0824 | > 3 | > 1 | 8.94 | > 10 | 0.182 | 0.557 | > 1 | > 10 | > 3 | 5.48 | > 1 | > 10 | > 1 | > 10 | 2.01 | > 10 | > 10 | 
5 | OACp4C (Esophageal Adenocarcinoma) | 1.63 | 0.342 | 0.0568 | > 10 | > 0.3 | > 1 | 0.18 | > 0.001 | 0.618 | 0.104 | > 3 | 0.117 | 1.9 | > 10 | 0.116 | 0.323 | 0.695 | 2.12 | > 3 | 3.56 | > 1 | 3.03 | > 1 | > 10 | 0.0931 | 5.81 | > 10 | 
6 | RH-41 (Rhabdomyosarcoma) | 0.314 | 0.729 | > 1 | > 10 | > 0.3 | > 1 | > 2 | > 0.001 | > 1 | 0.057 | > 3 | 0.087 | 3.43 | > 10 | 0.0231 | 0.476 | 0.0968 | > 10 | > 3 | 1.98 | > 1 | 4.12 | 0.0885 | > 10 | 0.0931 | > 10 | > 10 | 
7 | huH-1 (Hepatocellular Carcinoma) | > 10 | 2.52 | > 1 | > 10 | > 0.3 | > 1 | > 2 | > 0.001 | > 1 | 0.068 | > 3 | > 1 | > 10 | > 10 | 0.093 | > 1 | > 1 | > 10 | > 3 | > 10 | > 1 | 5.64 | > 1 | > 10 | > 10 | > 10 | > 10 | 
